{
  "source": "patent US4978654A",
  "about": "“Composition and method for treatment of disseminated fungal infections in mammals” (priority 1987, dated 1990)",
  "key": {"[1]": {"details": "Poste, Biol. Cell 47; 19 (1983); cited from earlier work"}, "Candida albicans": {"system": "Candida albicans", "experiment": "In vitro MFC, YNB tube dilution (Table 1)", "type": "cell-based", "details": "18 h", "description": "(§1) In vitro tests were conducted to determine the effect of free Amp B, Amp B encapsulated in nor-sterol-containing liposomes, (L-Amp B), Amp B encapsulated in cholesterol-containing liposomes (L-Amp B-C) and Amp B in ergosterol-containing liposomes (L-Amp B-E). Desoxycholate free Amphotericin B was obtained from E. R. Squibb & Sons, Inc. Amp B was encapsulated in non-sterol containing liposomes by the method described by Lopez-Berestein, et al., and summarized in Example 1, above. In order to obtain the different doses necessary, lipid concentration was held constant as the Amp B concentration was decreased. The concentration of Amp B within the liposome was determined by scanning in a UV absorption spectrophotometer (Gilford Instrument Laboratories, Oberlin, Ohio) at 405 nm after the Amp B was dissolved in methanol. Cholesterol or ergosterol, obtained from Avanti Polar Lipids (Birmingham, Ala.), was added to the chloroform DMPC:DMPG solution at a molar ratio of 7:3:4 (DMPC:DMPG:sterol).\n(§2) In vitro activity of free Amp B, L-Amp B, L-Amp B-C and L-Amp B-E was tested on the following yeast species, all clinical isolates obtained from the Clinical Microbiology Laboratories at the University of Texas M.D. Anderson Hospital and Tumor Institute at Houston: Candida albicans, C. tropicalis, C. parapsilosis, Torulopsis glabrata and Cryptococcus neoformans. The YNB tube dilution method described by Shadomy, S., et al., \"Susceptibility Testing with Antifungal Drugs.\" In Lennette, E. H., et al. (eds.), Manual of Clinical Microbiology, 3rd Ed. (Washington, D.C., American Society for Microbiology, 1980), pp. 647-653, hereby incorporated by reference, was used to perform all tests. All tubes were subcultured (10 μl ) onto Sabouraud-dextrose agar (SDA) (Scott/Randolph, Houston, Tex.) plates. Minimal fungicidal concentrations (MFC) were determined after incubation for 18 hours. The MFC was defined as the lowest concentration of Amp B that allowed no growth or growth of fewer than four colonies on the subculture plates."}, "Candida parapsilosis": {"system": "Candida parapsilosis", "experiment": "In vitro MFC, YNB tube dilution (Table 1)", "type": "cell-based", "details": "18 h", "description": "as §1, §2"}, "Candida tropicalis": {"system": "Candida tropicalis", "experiment": "In vitro MFC, YNB tube dilution (Table 1)", "type": "cell-based", "details": "18 h", "description": "as §1, §2"}, "Candida glabrata": {"system": "Candida glabrata", "experiment": "In vitro MFC, YNB tube dilution (Table 1)", "type": "cell-based, Candida glabrata (Torulopsis glabrata in method)", "details": "18 h", "description": "as §1, §2"}, "Candida neoformans": {"system": "Candida neoformans", "experiment": "In vitro MFC, YNB tube dilution (Table 1)", "type": "cell-based, Candida neoformans (Cryptococcus neoformans in method)", "details": "18 h", "description": "as §1, §2"}, "[2]": {"system": "yeast species, clinical isolates", "experiment": "In vitro antifungal activity summarized over the 19 yeast strains", "type": "cell-based", "description": "as §1, with “Cholesterol or ergosterol, obtained from Avanti Polar Lipids (Birmingham, Ala.), was added to the chloroform DMPC:DMPG solution at a molar ratio of 7:3:4 (DMPC:DMPG:sterol).” left out\nIn vitro activity of free Amp B, L-Amp B, L-Amp B-C and L-Amp B-E was tested on the following yeast species, all clinical isolates obtained from the Clinical Microbiology Laboratories at the University of Texas M.D. Anderson Hospital and Tumor Institute at Houston: Candida albicans, C. tropicalis, C. parapsilosis, Torulopsis glabrata and Cryptococcus neoformans. […] Minimal fungicidal concentrations (MFC) were determined after incubation for 18 hours. […]"}, "C. albicans": {"system": "C. albicans", "experiment": "MFC of Amp B in different phospholipid compositions (Table 3)", "type": "cell-based, Candida albicans", "details": "effect of lipid composition", "source_text": "The compositions included one or more of the following: DMPC, DMPG, cholesterol (Chol), ergosterol (Erg), and stearylamine (SA)."}, "C. albicans 336": {"system": "C. albicans 336", "experiment": "Survival of infected mice, effect of lipid composition (FIG. 3)", "type": "in vivo, Hale-Stoner mice", "details": "1.6 mg Amp B/kg", "description": "Hale-Stoner mice, 6-8 weeks old and weighing 20-25 g, were obtained from The University of Texas Science Park (Bastrop, Tex.). Mice (10 per group) were injected intravenously with Candida albicans strain 336. This strain was grown for 18 hours on SDA plates at 37° C., washed and resuspended in saline. The mice were injected in the tail vein with 0.2 ml of the suspension containing 7×10^5 colony-forming units. […] The mice were injected on the second day of infection with a single dose of Amphotericin B.\nAmp B was encapsulated in sterol-free and sterol-containing liposomes prepared by the method described in Example 2, above. Amp B concentration was determined at 405 nm as described in Example 2.\nThe effect of the lipid composition of the liposome on the survival of mice infected with C. albicans 336 was also evaluated. Each liposome case shown in FIG. 3 used 1.6 mg Amp B in 200 mg total lipid/kg."}, "[3]": {"experiment": "Toxicity / tolerated dose in mice", "details": "mouse, in vivo", "from_the_text": "The liposome-encapsulated Amp B may then be administered to a mammal infected with a fungal infection."}, "physchem": {"experiment": "physchem", "type": "physicochemical", "details": "organic solvent or mixture", "description": "The lipids dimyristoyl phosphatidylcholine (DMPC) and dimyristoyl phosphatidylglycerol (DMPG) were obtained from Avanti Polar Lipids (Birmingham, Ala.), and desoxycholate-free Amp B was obtained from Dr. Dan Bonner (Squibb Pharmaceuticals, New Brunswick, N.J.). DMPC and DMPG were dissolved in chloroform in a molar ratio of 7:3 DMPC:DMPG. Amp B was dissolved in methanol at a concentration of 40 μg/ml and the Amp B solution added to the chloroform containing the DMPC and DMPG. This mixture was placed in a rotary evaporator (Rotavapor®; Brinkman Instruments, Westbury, N.Y.) until all organic solvents were removed. Normal saline was then added and the vesicles formed by gentle agitation. Using this method, to prepare enough liposome-encapsulated Amp B to make up a single dose for a 50 kg patient at a dose of 0.8 mg/kg body weight (as discussed in Example 4) requires the drying of at least 1 to 1.5 liters of the Amp B-methanol solution. Under controlled temperature and pressure conditions, approximately 3 to 4 hours are required to evaporate this volume of the Amp B-methanol solution.\nUsing this method, 640 μg of Amp B was dissolved in 1 ml of chloroform (containing 25 mg of the lipid mixture), a significant increase over the 40 μg/ml which can be dissolved in methanol as in the method described above. […]"}, "Aspergillus terreus": {"system": "Aspergillus terreus", "experiment": "Treatment of cancer patient, Case 2", "type": "in vivo, human"}, "[4]": {"system": "systemic fungal infection (fungal liver abscesses, consistent with Aspergillus spp.)", "details": "human, in vivo"}, "[5]": {"details": "cited from earlier work"}, "[6]": {"details": "intravenous administration; cited from earlier work"}},
  "data": [
    {"smiles": "CCCCCCCCCCCCCCCCOP(=O)(O)OCCCCCCCCCCCCCCCC", "note": "[dicetyl phosphate]", "values": [
      {"measurement": "toxicity in mammalian systems", "setting": "[1]", "result": "toxic in mammalian systems in that they cause damage to the liver"}
    ]},
    {"smiles": "CCCCCCCCCCCCCCCCCCN", "note": "[stearylamine]", "values": [
      {"measurement": "toxicity in mammalian systems", "setting": "[1]", "result": "toxic in mammalian systems in that they cause damage to the liver"}
    ]},
    {"smiles": "C[C@@H]1[C@H](O)[C@@H](C)/C=C/C=C/C=C/C=C/C=C/C=C/C=C/[C@H](O[C@@H]2O[C@H](C)[C@@H](O)[C@H](N)[C@@H]2O)C[C@@H]2O[C@](O)(C[C@@H](O)C[C@@H](O)[C@H](O)CC[C@@H](O)C[C@@H](O)CC(=O)O[C@H]1C)C[C@H](O)[C@H]2C(=O)O", "note": "[Amp B, Amphotericin B]", "values": [
      {"measurement": "MFC", "setting": "Candida albicans; strain 57", "result": 0.8, "unit": "μg/Amp B/ml"},
      {"measurement": "MFC", "setting": "Candida albicans; strain 306", "result": 1.6, "unit": "μg/Amp B/ml"},
      {"measurement": "MFC", "setting": "Candida albicans; strain 704", "result": 0.4, "unit": "μg/Amp B/ml"},
      {"measurement": "MFC", "setting": "Candida albicans; strain 1091", "result": 0.8, "unit": "μg/Amp B/ml"},
      {"measurement": "MFC", "setting": "Candida parapsilosis; strain 139", "result": 3, "unit": "μg/Amp B/ml"},
      {"measurement": "MFC", "setting": "Candida parapsilosis; strain 1341", "result": "> 25", "unit": "μg/Amp B/ml"},
      {"measurement": "MFC", "setting": "Candida parapsilosis; strain 2300", "result": 3, "unit": "μg/Amp B/ml"},
      {"measurement": "MFC", "setting": "Candida tropicalis; strain 251", "result": 3, "unit": "μg/Amp B/ml"},
      {"measurement": "MFC", "setting": "Candida tropicalis; strain 1324", "result": 1.6, "unit": "μg/Amp B/ml"},
      {"measurement": "MFC", "setting": "Candida tropicalis; strain 1784", "result": 3, "unit": "μg/Amp B/ml"},
      {"measurement": "MFC", "setting": "Candida tropicalis; strain 2463", "result": 1.6, "unit": "μg/Amp B/ml"},
      {"measurement": "MFC", "setting": "Candida glabrata; strain 684", "result": 3, "unit": "μg/Amp B/ml"},
      {"measurement": "MFC", "setting": "Candida glabrata; strain 1172", "result": 1.6, "unit": "μg/Amp B/ml"},
      {"measurement": "MFC", "setting": "Candida glabrata; strain 1905", "result": 3, "unit": "μg/Amp B/ml"},
      {"measurement": "MFC", "setting": "Candida glabrata; strain 2539", "result": 3, "unit": "μg/Amp B/ml"},
      {"measurement": "MFC", "setting": "Candida neoformans; strain 222", "result": 1.6, "unit": "μg/Amp B/ml"},
      {"measurement": "MFC", "setting": "Candida neoformans; strain 595", "result": 0.4, "unit": "μg/Amp B/ml"},
      {"measurement": "MFC", "setting": "Candida neoformans; strain 843", "result": 0.8, "unit": "μg/Amp B/ml"},
      {"measurement": "MFC", "setting": "Candida neoformans; strain 881", "result": 1.6, "unit": "μg/Amp B/ml"},
      {"measurement": "efficacy ranking in killing of the fungal strains", "setting": "[2]", "result": "Amp B being most effective, then L-Amp B, L-Amp B-C and, finally L-Amp B-E"},
      {"measurement": "MFC", "setting": "C. albicans", "result": "1.6 μg of Amp B per ML"},
      {"measurement": "survival time over the controls", "setting": "C. albicans 336", "result": "improved survival time over the controls"},
      {"measurement": "time to 50% survival", "setting": "C. albicans 336; control 5 days", "result": 10, "unit": "days"},
      {"measurement": "LD50", "setting": "[3]", "result": "~1.2", "unit": "mg/kg"},
      {"measurement": "MTD", "setting": "[3]; read-out: maximum dose tolerated", "result": 0.8, "unit": "mg/kg"},
      {"measurement": "solubility", "setting": "physchem; chloroform with lipid mixture", "result": 640, "unit": "µg/mL"},
      {"measurement": "solubility", "setting": "physchem; methanol", "result": 40, "unit": "µg/mL"},
      {"measurement": "response to non-liposomal Amp B therapy", "setting": "Aspergillus terreus; intravenous", "result": "nasal lesions worsened in spite of Amp B therapy and new lung lesions appeared on chest x-ray examination"},
      {"measurement": "response to Amp B by aerosolization", "setting": "Aspergillus terreus; total of 1.4 gm by aerosolization", "result": "without improvement"},
      {"measurement": "side effects of non-liposomal Amp B therapy", "setting": "Aspergillus terreus; total of 2.4 gm intravenously", "result": "always associated with severe nausea, fever and chills"},
      {"measurement": "side effects of non-liposomal Amp B therapy", "setting": "[4]", "result": "fever and chills were observed"},
      {"measurement": "solubility in aqueous solution", "setting": "[5]", "result": "insoluble in aqueous solution"},
      {"measurement": "toxic effects", "setting": "[6]", "result": "renal disfunction, anemia, fever and hypotension"}
    ]}
  ]
}
